From patent publication US5869457A, “Modified proteins and their use for controlling viral infections” (Rijksuniversiteit Te Groningen, priority 1991, dated 1999)

Key:
[1] = tested on: OKT4A epitope of the CD4 receptor; assay: CD4 immunofluorescence assay, OKT4A mAb-CD4 interaction on MT-4 cells; conditions: at 25 μg/ml
plasma = assay: anticoagulant action determined as APTT; format: biochemical
Protocol: The compounds were dissolved in PBS of pH 7.2 and 30 μl were added to 270 μl of plasma.
APTT=activated partial thromboplastin time (seconds) APTT was determined electromechanically using standard methods.

Compound: O=C(O)C1=CC(=C(c2ccc(O)c(C(=O)O)c2)c2ccc(O)c(C(=O)O)c2)C=CC1=O [Aurintricarboxylic acid (ATA), Aurintricarboxylic acid]
- inhibition of OKT4A mAb-CD4 interaction [1]: completely inhibited

Compound: Heparin
- Anticoagulant action, APTT (plasma; 0.01 μg/ml): 38.4 s
- Anticoagulant action, APTT (plasma; 0.1 μg/ml): 40.3 s
- Anticoagulant action, APTT (plasma; 1 μg/ml): 40.5 s
- Anticoagulant action, APTT (plasma; 3 μg/ml): 65 s
- Anticoagulant action, APTT (plasma; 5 μg/ml): 140 s
- Anticoagulant action, APTT (plasma; 10 μg/ml): 220 s
- Anticoagulant action, APTT (plasma; 100 μg/ml): > 400 s
- anticoagulant activity as side effect (plasma; in words): serious anticoagulant activity
